How the values were obtained:
[1] = biological target: T1, DNA repair protein RAD52 homolog (Homo sapiens) (UniProt P43351); experiment: Inhibition of FAM-conjugated ssDNA binding to His-tagged wild type RAD52 (unknown origin) expressed in Rosetta2(DE3)/pLysS cells measured after 30 mins by high-throughput fluorescence polarization assay relative to control; design: concentration or dose not given beside the values
T1 sequence (whole entry): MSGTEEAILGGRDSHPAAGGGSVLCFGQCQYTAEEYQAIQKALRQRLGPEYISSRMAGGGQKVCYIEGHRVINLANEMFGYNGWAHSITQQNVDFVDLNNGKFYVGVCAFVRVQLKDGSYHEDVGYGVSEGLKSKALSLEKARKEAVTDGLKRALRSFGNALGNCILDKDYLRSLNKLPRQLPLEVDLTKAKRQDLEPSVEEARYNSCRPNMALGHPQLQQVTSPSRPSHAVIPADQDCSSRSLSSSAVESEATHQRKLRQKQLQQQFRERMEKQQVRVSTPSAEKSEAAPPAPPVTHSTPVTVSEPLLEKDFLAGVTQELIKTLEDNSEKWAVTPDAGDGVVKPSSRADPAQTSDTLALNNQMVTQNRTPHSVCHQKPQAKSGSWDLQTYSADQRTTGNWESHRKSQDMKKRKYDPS

[2] = biological target: T2, DNA repair protein RAD52 homolog (Homo sapiens, UniProt P43351); experiment: Inhibition of FAM-conjugated ssDNA binding to His-tagged wild type RAD52 (unknown origin) expressed in Rosetta2(DE3)/pLysS cells measured after 30 mins by fluorescence polarization assay
T2 sequence (P43351 whole entry): T1 sequence (whole entry)

U-87 MG = experiment: Antimigratory activity against human U87 cells up to 10 microM incubated for 6 hrs by CellTiter-Glo luminescent cell viability assay relative to control; assay type: functional, U-87MG ATCC; conditions: dose microM <=10
[3] = Antimigratory activity against human U-1242 cells at 3 uM incubated for 1 hr by scratch assay; assay type: functional, U-1242MG
[4] = Inhibition of human placental DNA-PK/Ku using EPPLSQEAFADLWKK as substrate in presence of [32P]ATP incubated for 12 mins by scintillation counting method
[5] = biological target: Cyclin-dependent kinase 13 (Homo sapiens, UniProt Q14004); experiment: Inhibition of CDK13 (unknown origin)
[6] = biological target: Cyclin-dependent kinase 12 (Homo sapiens, UniProt Q9NYV4); experiment: Inhibition of CDK12 (unknown origin)
Wee1-like protein kinase = Wee1-like protein kinase (Homo sapiens, UniProt P30291); experiment: Displacement of kinase tracer178 from recombinant WEE1 (unknown origin) incubated for 1 hr by lanthascreen TR-FRET assay
[7] = biological target: Serine-protein kinase ATM (Homo sapiens, UniProt Q13315); experiment: Inhibition of human HeLa nuclear extract derived ATM using glutathioneS-transferase-p53N66 as substrate preincubated for 10 mins followed by ATP addition and measured after 1 hr by ELISA
CAPAN-1 = experiment: Growth inhibition of BRCA2-deficient human Capan-1 cells at 10 uM incubated for 6 days with replacement of medium for every 3 days by CCK8 assay relative to control; assay type: functional; conditions: CAPAN-1, 144 h, time 6 day, read-out: GI
BXPC-3 = experiment: Growth inhibition of BRCA2-proficient human BxPC3 cells at 10 uM assessed as cell survival incubated for 6 days with replacement of medium for every 3 days by CCK8 assay relative to control; assay type: functional; conditions: BXPC-3, 144 h, time 6 day, read-out: Survival
[8] = biological target: Serine/threonine-protein kinase Sgk1 (Homo sapiens) (UniProt O00141); experiment: Inhibition of human SGK expressed in baculovirus expression system at 1 uM relative to control
Sequence of Serine/threonine-protein kinase Sgk1 (Homo sapiens) (O00141 whole entry): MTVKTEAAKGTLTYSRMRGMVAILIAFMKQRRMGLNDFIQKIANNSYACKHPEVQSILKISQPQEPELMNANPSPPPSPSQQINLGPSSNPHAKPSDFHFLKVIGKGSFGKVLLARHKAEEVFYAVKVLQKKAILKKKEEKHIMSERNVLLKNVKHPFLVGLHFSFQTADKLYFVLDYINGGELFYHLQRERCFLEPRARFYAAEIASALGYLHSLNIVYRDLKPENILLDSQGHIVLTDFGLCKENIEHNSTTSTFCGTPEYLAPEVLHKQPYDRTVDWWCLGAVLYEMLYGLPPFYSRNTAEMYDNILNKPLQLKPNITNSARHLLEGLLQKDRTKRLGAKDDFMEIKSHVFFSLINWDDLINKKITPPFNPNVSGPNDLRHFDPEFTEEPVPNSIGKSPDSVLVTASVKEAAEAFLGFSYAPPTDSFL

[9] = biological target: Serine/threonine-protein kinase ATR (Homo sapiens, UniProt Q13535); experiment: Inhibition of ATR (unknown origin)
Sequence of Serine/threonine-protein kinase ATR (Q13535 whole entry): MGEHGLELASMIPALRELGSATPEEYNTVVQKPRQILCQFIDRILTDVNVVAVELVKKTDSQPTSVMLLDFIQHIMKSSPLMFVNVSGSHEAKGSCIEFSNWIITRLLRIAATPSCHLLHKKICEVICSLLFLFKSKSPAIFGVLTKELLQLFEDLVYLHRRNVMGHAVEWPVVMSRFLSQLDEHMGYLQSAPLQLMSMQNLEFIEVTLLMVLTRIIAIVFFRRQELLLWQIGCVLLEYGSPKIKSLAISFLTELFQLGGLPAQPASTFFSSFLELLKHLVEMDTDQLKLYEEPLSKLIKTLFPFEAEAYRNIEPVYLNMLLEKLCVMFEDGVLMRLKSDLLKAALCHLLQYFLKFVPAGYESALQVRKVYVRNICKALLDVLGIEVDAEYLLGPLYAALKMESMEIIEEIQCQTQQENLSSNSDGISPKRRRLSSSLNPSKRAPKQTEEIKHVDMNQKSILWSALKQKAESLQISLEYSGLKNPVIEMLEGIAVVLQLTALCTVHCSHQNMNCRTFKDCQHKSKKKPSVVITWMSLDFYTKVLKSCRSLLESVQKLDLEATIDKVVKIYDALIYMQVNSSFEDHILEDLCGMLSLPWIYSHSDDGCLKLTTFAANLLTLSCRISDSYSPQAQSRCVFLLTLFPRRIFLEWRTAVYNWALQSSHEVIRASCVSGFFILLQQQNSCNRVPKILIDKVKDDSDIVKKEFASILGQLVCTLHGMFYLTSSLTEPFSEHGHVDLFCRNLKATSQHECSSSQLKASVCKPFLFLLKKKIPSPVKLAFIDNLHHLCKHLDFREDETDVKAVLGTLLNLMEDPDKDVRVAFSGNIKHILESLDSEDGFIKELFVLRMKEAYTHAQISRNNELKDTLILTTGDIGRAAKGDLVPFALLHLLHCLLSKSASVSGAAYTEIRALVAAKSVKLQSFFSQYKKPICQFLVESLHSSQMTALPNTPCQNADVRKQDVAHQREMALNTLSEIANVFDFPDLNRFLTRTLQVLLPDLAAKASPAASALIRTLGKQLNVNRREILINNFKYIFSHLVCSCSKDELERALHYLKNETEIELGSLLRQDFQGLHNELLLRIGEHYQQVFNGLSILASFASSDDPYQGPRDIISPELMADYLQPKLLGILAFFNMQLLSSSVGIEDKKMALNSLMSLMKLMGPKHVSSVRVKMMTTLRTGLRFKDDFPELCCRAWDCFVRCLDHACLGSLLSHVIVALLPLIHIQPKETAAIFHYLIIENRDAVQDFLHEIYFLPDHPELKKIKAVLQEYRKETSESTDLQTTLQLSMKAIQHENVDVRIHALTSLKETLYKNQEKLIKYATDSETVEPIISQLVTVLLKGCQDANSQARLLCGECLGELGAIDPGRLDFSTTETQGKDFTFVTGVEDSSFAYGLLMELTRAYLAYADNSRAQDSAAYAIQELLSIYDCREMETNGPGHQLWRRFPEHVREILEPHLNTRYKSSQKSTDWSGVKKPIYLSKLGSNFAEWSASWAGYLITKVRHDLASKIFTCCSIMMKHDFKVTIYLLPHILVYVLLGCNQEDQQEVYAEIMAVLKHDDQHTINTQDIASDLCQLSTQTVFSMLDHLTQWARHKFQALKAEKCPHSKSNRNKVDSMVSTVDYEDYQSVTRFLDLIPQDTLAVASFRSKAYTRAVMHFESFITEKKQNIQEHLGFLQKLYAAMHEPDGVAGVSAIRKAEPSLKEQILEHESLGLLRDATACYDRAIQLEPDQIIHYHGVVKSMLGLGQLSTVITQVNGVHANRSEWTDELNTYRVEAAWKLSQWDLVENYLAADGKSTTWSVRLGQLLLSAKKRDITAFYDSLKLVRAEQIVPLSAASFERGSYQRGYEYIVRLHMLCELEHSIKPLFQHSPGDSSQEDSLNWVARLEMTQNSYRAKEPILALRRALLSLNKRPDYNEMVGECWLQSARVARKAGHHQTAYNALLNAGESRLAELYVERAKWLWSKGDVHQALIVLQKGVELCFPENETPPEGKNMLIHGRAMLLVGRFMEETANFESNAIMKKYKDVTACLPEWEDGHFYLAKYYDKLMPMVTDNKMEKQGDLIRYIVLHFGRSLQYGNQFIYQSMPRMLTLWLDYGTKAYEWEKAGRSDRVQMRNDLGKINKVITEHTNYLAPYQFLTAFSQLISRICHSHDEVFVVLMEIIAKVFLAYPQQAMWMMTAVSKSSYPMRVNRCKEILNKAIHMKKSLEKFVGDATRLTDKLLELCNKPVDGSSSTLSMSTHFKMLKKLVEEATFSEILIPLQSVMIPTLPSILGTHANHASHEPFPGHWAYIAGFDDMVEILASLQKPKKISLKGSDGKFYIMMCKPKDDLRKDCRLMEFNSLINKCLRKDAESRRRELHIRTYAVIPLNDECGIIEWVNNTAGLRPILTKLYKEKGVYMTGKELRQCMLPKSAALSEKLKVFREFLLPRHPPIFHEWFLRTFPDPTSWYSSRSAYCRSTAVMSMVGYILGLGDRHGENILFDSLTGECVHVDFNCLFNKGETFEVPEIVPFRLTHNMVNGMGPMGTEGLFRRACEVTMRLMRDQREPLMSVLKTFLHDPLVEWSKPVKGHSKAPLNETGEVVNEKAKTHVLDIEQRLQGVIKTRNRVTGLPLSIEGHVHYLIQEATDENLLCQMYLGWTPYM

[10] = biological target: Voltage-gated inwardly rectifying potassium channel KCNH2 (Homo sapiens, UniProt Q12809); experiment: Inhibition of human ERG
[11] = biological target: NUAK family SNF1-like kinase 1 (Homo sapiens) (UniProt O60285); experiment: Inhibition of human NUAK1 expressed in baculovirus expression system at 1 uM relative to control
Sequence of NUAK family SNF1-like kinase 1 (Homo sapiens) (O60285 whole entry): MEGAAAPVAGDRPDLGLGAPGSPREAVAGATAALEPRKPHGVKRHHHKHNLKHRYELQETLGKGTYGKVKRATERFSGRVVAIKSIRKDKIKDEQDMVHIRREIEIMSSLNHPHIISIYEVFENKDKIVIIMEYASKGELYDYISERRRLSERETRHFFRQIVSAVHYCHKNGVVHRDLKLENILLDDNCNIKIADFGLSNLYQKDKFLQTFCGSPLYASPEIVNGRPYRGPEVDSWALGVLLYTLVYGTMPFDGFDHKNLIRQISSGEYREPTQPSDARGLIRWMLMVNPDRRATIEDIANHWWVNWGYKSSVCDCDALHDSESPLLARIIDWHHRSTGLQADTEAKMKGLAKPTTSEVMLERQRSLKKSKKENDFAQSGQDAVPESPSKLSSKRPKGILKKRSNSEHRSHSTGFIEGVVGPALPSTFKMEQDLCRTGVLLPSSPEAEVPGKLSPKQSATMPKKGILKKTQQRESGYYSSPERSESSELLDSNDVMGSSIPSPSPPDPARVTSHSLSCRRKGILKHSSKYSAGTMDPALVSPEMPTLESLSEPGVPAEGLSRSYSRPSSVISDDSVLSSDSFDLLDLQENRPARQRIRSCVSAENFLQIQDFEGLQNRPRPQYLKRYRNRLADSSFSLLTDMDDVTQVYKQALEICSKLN

[12] = Inhibition of DNA-PK (unknown origin); design: species or system Homo sapiens
[13] = biological target: Serine/threonine-protein kinase mTOR (Homo sapiens, UniProt P42345); experiment: Inhibition of mTOR (unknown origin)
[14] = biological target: Macrophage colony-stimulating factor 1 receptor (Homo sapiens) (UniProt P07333); experiment: Inhibition of human CSF1R expressed in baculovirus expression system at 1 uM relative to control
Sequence of Macrophage colony-stimulating factor 1 receptor (Homo sapiens) (P07333 whole entry): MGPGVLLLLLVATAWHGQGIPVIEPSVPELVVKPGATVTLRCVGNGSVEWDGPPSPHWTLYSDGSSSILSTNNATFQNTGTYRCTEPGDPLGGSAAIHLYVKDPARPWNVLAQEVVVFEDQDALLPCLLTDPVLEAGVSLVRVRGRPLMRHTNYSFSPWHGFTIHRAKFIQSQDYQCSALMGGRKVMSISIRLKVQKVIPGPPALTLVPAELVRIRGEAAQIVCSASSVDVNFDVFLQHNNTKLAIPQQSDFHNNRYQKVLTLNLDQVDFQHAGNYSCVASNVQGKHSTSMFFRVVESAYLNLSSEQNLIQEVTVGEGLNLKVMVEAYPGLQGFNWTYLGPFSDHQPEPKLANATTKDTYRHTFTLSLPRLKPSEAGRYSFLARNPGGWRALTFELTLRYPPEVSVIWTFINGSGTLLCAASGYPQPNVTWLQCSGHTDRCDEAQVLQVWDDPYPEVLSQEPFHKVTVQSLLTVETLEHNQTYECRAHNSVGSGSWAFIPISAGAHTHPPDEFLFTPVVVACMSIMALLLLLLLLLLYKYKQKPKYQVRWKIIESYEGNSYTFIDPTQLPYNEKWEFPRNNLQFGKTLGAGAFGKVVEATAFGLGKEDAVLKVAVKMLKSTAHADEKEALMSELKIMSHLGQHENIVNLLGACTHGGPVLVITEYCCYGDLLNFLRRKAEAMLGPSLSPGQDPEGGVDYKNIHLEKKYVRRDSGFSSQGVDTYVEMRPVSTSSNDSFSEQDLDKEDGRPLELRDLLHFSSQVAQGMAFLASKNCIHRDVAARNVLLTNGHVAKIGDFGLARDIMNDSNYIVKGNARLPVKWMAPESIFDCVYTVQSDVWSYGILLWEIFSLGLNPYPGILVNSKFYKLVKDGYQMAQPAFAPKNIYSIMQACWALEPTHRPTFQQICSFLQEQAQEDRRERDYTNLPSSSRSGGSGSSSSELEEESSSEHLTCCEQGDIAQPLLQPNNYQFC

HCC1937 = experiment: Potentiation of veliparib-induced cytotoxicity against human HCC1937 cells incubated for 7 days by celltiter-Glo assay relative to control; assay type: functional; conditions: time 7 day
Hs-578T = experiment: Potentiation of veliparib-induced cytotoxicity against human Hs578T cells incubated for 7 days by celltiter-Glo assay relative to control; assay type: functional; conditions: time 7 day
MDA-MB-436 = experiment: Potentiation of veliparib-induced cytotoxicity against human MDA-MB-436 cells incubated for 7 days by celltiter-Glo assay relative to control; assay type: functional; conditions: time 7 day
HCC38 = experiment: Potentiation of veliparib-induced cytotoxicity against human HCC38 cells incubated for 7 days by celltiter-Glo assay relative to control; assay type: functional; conditions: time 7 day
MDA-MB-231 = experiment: Potentiation of veliparib-induced cytotoxicity against human MDA-MB-231 cells incubated for 7 days by celltiter-Glo assay relative to control; assay type: functional; conditions: time 7 day
MDA-MB-468 = experiment: Potentiation of veliparib-induced cytotoxicity against human MDA-MB-468 cells incubated for 7 days by celltiter-Glo assay relative to control; assay type: functional; conditions: time 7 day
BT-549 = experiment: Potentiation of veliparib-induced cytotoxicity against human BT549 cells incubated for 7 days by celltiter-Glo assay relative to control; assay type: functional; conditions: time 7 day
SUM149PT = experiment: Potentiation of veliparib-induced cytotoxicity against human SUM149PT cells incubated for 7 days by celltiter-Glo assay relative to control; assay type: functional; conditions: time 7 day
BT-20 = experiment: Potentiation of veliparib-induced cytotoxicity against human BT20 cells incubated for 7 days by celltiter-Glo assay relative to control; assay type: functional; conditions: time 7 day
[15] = biological target: Cyclin-dependent kinase 1 (Homo sapiens, UniProt P06493); experiment: Inhibition of CDK1 (unknown origin)
Sequence of Cyclin-dependent kinase 1 (P06493 whole entry): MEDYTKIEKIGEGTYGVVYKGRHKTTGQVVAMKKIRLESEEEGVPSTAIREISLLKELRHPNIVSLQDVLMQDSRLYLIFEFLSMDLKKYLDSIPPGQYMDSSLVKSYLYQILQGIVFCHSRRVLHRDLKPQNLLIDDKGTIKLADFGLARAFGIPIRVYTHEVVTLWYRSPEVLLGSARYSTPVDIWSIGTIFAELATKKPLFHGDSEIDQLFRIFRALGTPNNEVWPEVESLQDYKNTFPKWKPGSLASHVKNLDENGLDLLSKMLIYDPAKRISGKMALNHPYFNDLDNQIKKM

[16] = biological target: T2, DNA repair protein RAD52 homolog; experiment: Inhibition of 6His-tagged human RD52 assessed as reduction in RD52 binding to Cy3-dT30-Cy5 ssDNA incubated for 30 mins by FRET assay

In the case of NC(Cc1cc(O)c(O)cc1O)C(=O)O (stereo not given), the inhibition [1] is reported as greater than 60% and the IC50 [2] is reported as 1100 nM.
For C[C@@H]1CN(CC(=O)Nc2ccc3c(c2)Cc2cccc(-c4cc(=O)cc(N5CCOCC5)o4)c2S3)C[C@H](C)O1, the Activity (U-87 MG) was greater than 70% and the Activity [3] was greater than 50%.
For CCc1[nH]c(/C=C2\C(=O)Nc3ccc(S(=O)(=O)Nc4ccccc4)cc32)c(CC)c1CCC(=O)O, the IC50 [4] was 130 nM.
Work on CN(C)C/C=C/C(=O)Nc1ccc(C(=O)Nc2cccc(Nc3ncc(Cl)c(-c4c[nH]c5ccccc45)n3)c2)cc1 yielded an IC50 [5] of 225 nM and an IC50 [6] of 864 nM.
In the case of O=C1NC(=S)NC(=O)C1=C/C=C/c1ccco1, the inhibition [1] is reported as greater than 60% and the IC50 [2] is reported as less than 5000 nM.
Work on Cn1cccc1C=CC(=O)O yielded an inhibition [1] greater than 60% and an IC50 [2] of less than 5000 nM.
C=CCn1c(=O)c2cnc(Nc3ccc(N4CCN(C(=O)OC)CC4)cc3)nc2n1-c1cccc(C(C)(C)O)n1 showed an IC50 (Wee1-like protein kinase) of 2.8 nM.
Compound CC(C)Oc1c(-c2ccco2)c(=O)c1=O has an inhibition [1] greater than 60% and an IC50 [2] of less than 5000 nM.
Oc1ccc(N=Cc2ccc[nH]2)cc1N=Cc1ccc[nH]1 gave an inhibition [1] greater than 60% and an IC50 [2] of less than 5000 nM.
With O=C(O)c1ccc(/C=N/c2nc[nH]n2)cc1 the inhibition [1] was greater than 60% and the IC50 [2] was less than 5000 nM.
In the case of O=c1cc(-c2cccc3c2Sc2ccccc2S3)oc(N2CCCCC2)c1, the IC50 [7] is reported as 2960 nM.
O=C1C=CC(=NOS(=O)(=O)c2cc(Cl)ccc2Cl)C=C1 showed an inhibition [1] greater than 60% and an IC50 [2] of less than 5000 nM.
Work on Cn1cccc1C=C1C(=O)NC(=S)NC1=O yielded an inhibition [1] greater than 60% and an IC50 [2] of less than 5000 nM.
Cc1ccc2[nH]c(CCc3cccc(NC(=O)C4CCCN(S(=O)(=O)N5CCCC5)C4)c3)nc2c1 (stereo not given) showed an inhibition of growth at 10 µM (CAPAN-1) of 50% and a viability at 10 µM (BXPC-3) greater than 90%.
Work on O=C(O)C1=CC(=C(c2ccc(O)c(C(=O)O)c2)c2ccc(O)c(C(=O)O)c2)C=CC1=O [AURINTRICARBOXYLIC ACID] yielded an inhibition [1] greater than 60% and an IC50 [2] of less than 5000 nM.
Compound CC(C)n1c(=O)n(C)c2cnc3cc(F)c(-c4ccc(OCCCN5CCCCC5)nc4)cc3c21 [AZD-1390] has an inhibition [8] greater than 50%, an IC50 [9] of no less than 1000 nM and an IC50 [10] of 6550 nM. For the same compound, the inhibition [11] was greater than 50%, the IC50 [12] was no less than 1000 nM and the IC50 [13] was no less than 1000 nM. The inhibition [14] was greater than 50%.
Compound Cc1cc2ncnn2cc1Nc1ncc2c(n1)n(C1CCOCC1)c(=O)n2C [AZD-7648] has an IC50 [12] of 0.6 nM.
With CCc1cnn2c(NCc3ccc[n+]([O-])c3)cc(N3CCCC[C@H]3CCO)nc12 [DINACICLIB] the “fold change (FC)” value (HCC1937) was 2.5, the “fold change (FC)” value (Hs-578T) was 2.5 and the “fold change (FC)” value (MDA-MB-436) was 2.5. For the same compound, the “fold change (FC)” value (HCC38) was 2.5, the “fold change (FC)” value (MDA-MB-231) was 2.5 and the “fold change (FC)” value (MDA-MB-468) was 2.5. For the same compound, the “fold change (FC)” value (BT-549) was 2.5, the “fold change (FC)” value (SUM149PT) was 2.5 and the “fold change (FC)” value (BT-20) was 2.5.
Compound Cc1cc2c(C(C)C)c(O)c(O)c(C=O)c2c(O)c1-c1c(C)cc2c(C(C)C)c(O)c(O)c(C=O)c2c1O [GOSSYPOL] has an inhibition [1] greater than 60% and an IC50 [2] of less than 5000 nM.
Nc1nn2cc(F)cnc2c1C(=O)Nc1cncc(F)c1N1CCC(C(=O)N2CCN(C3COC3)CC2)CC1 [M4344] showed a Ki [9] of no more than 0.15 nM.
With COc1ccc([C@@H](O)c2cc(-c3ncnc4cc(N5CCOCC5)ccc34)c(F)cc2Cl)nn1 [NEDISERTIB] the IC50 [12] was no more than 3 nM.
For CCN(CC)CCOc1ccc(Nc2ncc3cc(-c4c(Cl)cccc4Cl)c(=O)n(C)c3n2)cc1 [PD-0166285], the IC50 [15] was less than 100 nM.
Work on O=C(O[C@@H]1O[C@@H]2COC(=O)c3cc(O)c(O)c(O)c3-c3c(cc(O)c(O)c3O)C(=O)O[C@H]2[C@H](O)[C@H]1O)c1cc(O)c(O)c(O)c1 [STRICTININ] yielded an IC50 [16] of 1500 nM.

— ChEMBL document CHEMBL4765462, “Synthetic Lethality through the Lens of Medicinal Chemistry” (J Med Chem, 2020)
